# How the values were obtained:
# Type in all cases: cell-based
# [1] = tested on: HTT mRNA alternative junction (AJ); experiment: RT-qPCR splicing assay, HTT alternative junction (AJ) mRNA increase; details: A673 or K562 cell line, 24 hours treatment; concentration having 50% response in AJ mRNA increase
# Experimental: (§1) Compounds described herein were used to modulate RNA transcript abundance in cells. The expression of a target mRNA was measured by detecting the formation of an exon-exon junction in the canonical transcript (CJ). A compound mediated exon-inclusion event was detected by observing an increase in formation of a new junction with an alternative exon (AJ). Real-time qPCR assays were used to detect these splicing switches and interrogate the potency of various compounds towards different target genes. A high-throughput real time quantitative PCR (RT-qPCR) assay was developed to measure these two isoforms of the mRNA (CJ and AJ) for an exemplary gene, HTT, together with a control housekeeping gene, GAPDH or GUSB or PPIA, used for normalization. Briefly, the A673 or K562 cell line was treated with various compounds described herein (e.g., compounds of Formula (I)). After treatment, the levels of the HTT mRNA targets were determined from each sample of cell lysate by cDNA synthesis followed by qPCR.
# (§2) The A673 cell line was cultured in DMEM with 10% FBS. Cells were diluted with full growth media and plated in a 96-well plate (15,000 cells in 100 ul media per well). The plate was incubated at 37° C. with 5% CO2 for 24 hours to allow cells to adhere. An 11-point 3-fold serial dilution of the compounds was made in DMSO then diluted in media in an intermediate plate. Compounds were transferred from the intermediate plate to the cell plate with the top dose at a final concentration of 10 uM in the well. Final DMSO concentration was kept at or below 0.25%. The cell plate was returned to the incubator at 37° C. with 5% CO2 for an additional 24 hours.
# (§3) The K562 cell line was cultured in IMDM with 10% FBS. For K562, cells were diluted with full growth media and plated in either a 96-well plate (50,000 cells in 50 uL media per well) or a 384-well plate (8,000-40,000 cells in 45 uL media per well). An 11-point 3-fold serial dilution of the compounds were made in DMSO then diluted in media in an intermediate plate. Compound was transferred from the intermediate plate to the cell plate with the top dose at a final concentration of 10 uM in the well. Final DMSO concentration was kept at or below 0.25%. Final volume was 100 uL for 96-well plate and 50 uL for 384-well plate. The cell plate was then placed in an incubator at 37° C. with 5% CO2 for 24 hours.
# (§4) The cells were then gently washed with 50 uL-100 uL cold PBS before proceeding to addition of lysis buffer. 30 uL-50 uL of room temperature lysis buffer with DNAse I (and optionally RNAsin) was added to each well. Cells were shaken/mixed thoroughly at room temperature for 5-10 minutes for lysis to take place and then 3 uL-5 uL of room temperature stop solution was added and wells were shaken/mixed again. After 2-5 minutes, the cell lysate plate was transferred to ice for RT-qPCR reaction setup. The lysates could also be frozen at −80° C. for later use.
# (§5) In some cases, a direct lysis buffer was used. An appropriate volume of 3×lysis buffer (10 mM Tris, 150 mM NaCl, 1.5%-2.5% Igepal and 0.1-1 U/uL RNAsin, pH 7.4) was directly added to either K562 or A673 cells in media and mixed by pipetting 3 times. The plates were then incubated at room temperature with shaking/rocking for 20-50 minutes to allow for lysis to take place. After this time, the cell lysate plate was transferred to ice to set up for the RT-qPCR reactions. The lysates could also be frozen at −80° C. for later use.
# (§6) To set up 10 uL RT-qPCR reactions, cell lysates were transferred to 384-well qPCR plates containing the master mix according to the table below. The plates were sealed, gently vortexed, and spun down before the run. The volumes were adjusted accordingly in some instances where the reaction was carried in 20 uL. The table below summarizes the components of the RT-qPCR reactions:
# (§7) The RT-qPCR reaction was performed using a QuantStudio (ThermoFisher) under the following fast cycling conditions. […]
# [2] = tested on: HTT mRNA canonical junction (CJ); experiment: RT-qPCR splicing assay, HTT canonical junction (CJ) mRNA decrease; details: A673 or K562 cell line, 24 hours treatment; concentration having 50% response in CJ mRNA decrease
# Experimental: as §1, §2, §3, §4, §5, §6, §7
# Target C CJ mRNA = experiment: Gene panel canonical junction qPCR assay, Target C; details: larger gene panel; concentration having 50% response in CJ decrease; read-out: Target C IC50 (decrease in CJ mRNA levels)
# Experimental: as §1
# (§8) The data analysis was performed by first determining the ΔCt vs the housekeeper gene. This ΔCt was then normalized against the DMSO control (ΔΔCt) and converted to RQ (relative quantification) using the 2^(−ΔΔCt) equation. The RQ were then converted to a percentage response by arbitrarily setting an assay window of 3.5 ΔCt for HTT-CJ and an assay window of 9 ΔCt for HTT-AJ. […] The percentage response was then fitted to the 4 parametric logistic equation to evaluate the concentration dependence of compound treatment. The increase in AJ mRNA is reported as AC50 (compound concentration having 50% response in AJ increase) while the decrease in CJ mRNA levels is reported as IC50 (compound concentration having 50% response in CJ decrease).
# (§9) Additional studies were carried out for a larger panel of genes using the protocol provided above. The junction between flanking upstream and downstream exons was used to design canonical junction qPCR assays. At least one of the forward primer, reverse primer or the CY5-labeled 5′ nuclease probe (with 3′ quencher such as ZEN/Iowa Black FQ) was designed to overlap with the exon junction to capture the CJ mRNA transcript. BLAST was used to confirm the specificity of the probeset and parameters such as melting temperature, GC content, amplicon size, and primer dimer formation are considered during their design. Data for the decrease in CJ mRNA levels for three exemplary genes (HTT, SMN2, and Target C) analyzed in this panel are reported as IC50 (compound concentration having 50% response in CJ decrease).
# HTT CJ mRNA = experiment: Gene panel canonical junction qPCR assay, HTT; details: larger gene panel; concentration having 50% response in CJ decrease; read-out: HTT IC50 (decrease in CJ mRNA levels)
# Experimental: as §1, §8, §9
# SMN2 CJ mRNA = experiment: Gene panel canonical junction qPCR assay, SMN2; details: larger gene panel; concentration having 50% response in CJ decrease; read-out: SMN2 IC50 (decrease in CJ mRNA levels)
# Experimental: as §1, §8, §9
SMILES,AC50 [1] [µM],AC50 [2] [µM],IC50 (Target C CJ mRNA) [µM],IC50 (HTT CJ mRNA) [µM],IC50 (SMN2 CJ mRNA) [nM]
"Cc1cn2cc(-c3cccc4c(N5CCNCC5)nncc34)nc2c(C)n1 [Compound 100, 5-[6,8-dimethylimidazo[1,2-a]pyrazin-2-yl]-1-(piperazin-1-yl)phthalazine]",> 10,> 10,,,
"Cc1cn2nc(-c3cccc4c(N5CCNCC5)nncc34)cc(C)c2n1 [Compound 101, 5-[2,8-dimethylimidazo[1,2-b]pyridazin-6-yl]-1-(piperazin-1-yl)phthalazine]",1 to 10,> 10,1 to 10,,
"c1cc(-c2cn[nH]c2)c2cnnc(N3CCNCC3)c2c1 [Compound 102, 1-(piperazin-1-yl)-5-(1H-pyrazol-4-yl)phthalazine]",> 10,> 10,,> 10,> 10000
"Cc1cn2nc(-c3cccc4c(C5CCNCC5)nncc34)cc(C)c2n1 [Compound 104, 5-[2,8-dimethylimidazo[1,2-b]pyridazin-6-yl]-1-(piperidin-4-yl)phthalazine]",> 10,,,,
"Cc1cn2cc(-c3cccc4c(N5CCCCC5)nncc34)nc2c(C)n1 [Compound 108, 5-[6,8-dimethylimidazo[1,2-a]pyrazin-2-yl]-1-(piperidin-1-yl)phthalazine]",> 10,> 10,1 to 10,,
"Cc1cn2cc(-c3cccc4c(C5=CCNCC5)nncc34)nc2c(C)n1 [Compound 109, 5-[6,8-dimethylimidazo[1,2-a]pyrazin-2-yl]-1-(1,2,3,6-tetrahydropyridin-4-yl)phthalazine]",> 10,> 10,1 to 10,,
"Cc1cn2nc(NC(=O)c3cccc4c(N5CCNCC5)cnnc34)cc(C)c2n1 [Compound 111, N-[2,8-dimethylimidazo[1,2-b]pyridazin-6-yl]-4-(piperazin-1-yl)cinnoline-8-carboxamide]",> 10,> 10,,,
"Cc1cn2nc(NC(=O)c3cccc4c(C5CCNCC5)cnnc34)cc(C)c2n1 [Compound 112, N-[2,8-dimethylimidazo[1,2-b]pyridazin-6-yl]-4-(piperidin-4-yl)cinnoline-8-carboxamide]",> 10,> 10,1 to 10,,
"Cc1cn2cc(NC(=O)c3cccc4c(N5CCNCC5)cnnc34)cc(F)c2n1 [Compound 113, N-[8-fluoro-2-methylimidazo[1,2-a]pyridin-6-yl]-4-(piperazin-1-yl)cinnoline-8-carboxamide]",1 to 10,> 10,< 0.1,> 10,< 100
"Cc1cn2cc(NC(=O)c3cccc4c(C5CCNCC5)cnnc34)cc(F)c2n1 [Compound 114, N-[8-fluoro-2-methylimidazo[1,2-a]pyridin-6-yl]-4-(piperidin-4-yl)cinnoline-8-carboxamide]",> 10,> 10,,,
"Cc1cn2cc(NC(=O)c3cccc4c(N5CCC(NC(C)(C)C)C5)cnnc34)cc(F)c2n1 (stereo not shown) [Compound 122, 4-[3-(tert-butylamino)pyrrolidin-1-yl]-N-[8-fluoro-2-methylimidazo[1,2-a]pyridin-6-yl]cinnoline-8-carboxamide]",> 10,> 10,,,
"COc1cc(N2CCNCC2)c2cccc(-c3cc(C)c4nc(C)cn4n3)c2n1 [Compound 134, 8-[2,8-dimethylimidazo[1,2-b]pyridazin-6-yl]-2-methoxy-4-(piperazin-1-yl) quinoline]",1 to 10,1 to 10,1 to 10,,
"COc1cc(N2CCNCC2)c2cccc(-c3cc(F)c4nc(C)cn4c3)c2n1 [Compound 138, 8-[8-fluoro-2-methylimidazo[1,2-a]pyridin-6-yl]-2-methoxy-4-(piperazin-1-yl) quinoline]",> 10,> 10,> 10,> 10,100 to 1000
"Cc1cn2cc(NC(=O)c3cccc4c(N(C)C5CC(C)(C)NC(C)(C)C5)cnnc34)cc(F)c2n1 [Compound 184, N-[8-fluoro-2-methylimidazo[1,2-a]pyridin-6-yl]-4-[methyl(2,2,6,6-tetramethylpiperidin-4-yl)amino]cinnoline-8-carboxamide]",1 to 10,1 to 10,1 to 10,1 to 10,1000 to 10000
Cc1cn2nc(-c3cccc4c3CCC(=O)N4C3CCNCC3)cc(C)c2n1 [Compound 185],> 10,1 to 10,,1 to 10,> 10000
Cc1cn2cc(NC(=O)c3cccc4c(N(C)C5CCN(C)CC5)cnnc34)cc(F)c2n1 [Compound 213],1 to 10,1 to 10,1 to 10,1 to 10,1000 to 10000

# From patent US20240190879A1, “FUSED BICYCLIC COMPOUNDS USEFUL FOR MODULATING NUCLEIC ACID SPLICING” (REMIX THERAPEUTICS INC., priority 2020, published 2024)
